# Values quoted from earlier work in patent US20160270390A1, “POLYMERIC FILM FOR AG[…] STORAGE, […] THEREFROM AND RELATED METHODS OF AG[…] STORAGE” (priority 2012, published 2016).
# Test system: insect pests
# Settings: Zimbabwe, grain damage of 92% reported due to insect pests
smiles,measurement,value
CCOC(=O)CC(SP(=S)(OC)OC)C(=O)OCC (stereo not shown) [malthion],reduction of grain damage in stored maize,10%
